Data published in patent US6756206B2, “Adsorption and removal of endotoxin from physiological fluids using cationic helix peptides” (Commonwealth Biotechnologies, Inc., priority 1998, dated 2004).
Like-named read-outs stand apart in the source and are kept apart here. No end group written: not given here.

B1: rHBP: recombinant heparin binding protein; formerly known as cationic antimicrobial protein or bactericidal/permeability increasing factor (protein, UniProt P20160 27-248, looked up)
Azurocidin: IVGGRKARPRQFPFLASIQNQGRHFCGGALIHARFVMTAASCFQSQNPGVSTVVLGAYDLRRRERQSRQTFSISSMSENGYDPQQNLNDLMLLQLDREANLTSSVTILPLPLQNATVEAGTRCQVAGWGSQRSGGRLSRFPRFVNVTVTPEDQCRPNNVCTGVLTRRGGICNGDGGTPLVCEGLAHGVASFSLGPCGRGPDFFTRVALFRDWIDGVLNNPGP

Columns and labels:
[1] = Neutralization of endotoxin purposely added to plasma or buffer, kinetic chromogenic Limulus amebocyte lysate endotoxin assay; format: biochemical; conditions: for neutralization (binding) of endotoxin, in words: endotoxin added to plasma or aqueous samples; for Percent binding of Endotoxin: plasma, endotoxin 10 ng/mL
Method: The presence of endotoxin may routinely be measured using, for example, a kinetic chromogenic method. The assay involves a complete set of enzyme reactions which are described in detail in the following publications, each of which is hereby incorporated by reference.
In the course of the endotoxin assay, a calibration curve is prepared which is a plot of logarithm of the time of the kinetic endpoint of a chromogenic reaction versus the logarithm of known concentrations of endotoxin.
Thus, if endotoxin is added to aqueous buffer solutions or to plasma the amount of endotoxin present can be assayed by reference to the calibration curve. Similarly, if plasma, plasma fractions, patient samples or any test solution contains an endogenous level of endotoxin, the level can also be determined by reference to the calibration curve.
Endotoxin was purposely added to plasma to a final concentration of 10 ng/mL and increasing concentrations of the compounds Arg Helix #2 (a monomeric cationic helix peptide), Bis Arg Helix #2 (which contains 2 copies of Arg Helix #2), Tris Arg Helix #3 (which contains 3 copies of Arg Helix #3), Tetra Arg Helix #3 (4 copies of Arg Helix #3) or Tris Arg Helix #3 (constrained) (3 copies of Arg Helix #3 constrained by design to present a “binding groove” within the molecule) were added to these same samples (Table 1).

[2] = cited from earlier work

Molecule	neutralization (binding) of endotoxin, in words [1]	Percent binding of Endotoxin ([1]; peptide concentration 0.01 mg/mL) [%]	Percent binding of Endotoxin ([1]; peptide concentration 0.1 mg/mL) [%]	Percent binding of Endotoxin ([1]; peptide concentration 0.5 mg/mL) [%]	Percent binding of Endotoxin ([1]; peptide concentration 1.0 mg/mL) [%]	Survival ([2]; animals treated with cefoxitin and rHBP, compared to controls)	Survival ([2]; mice pretreated well in advance)	Survival ([2]; treated at the time of ligation and puncture, versus control group)
protamine [reference compound]	ineffective in neutralizing endotoxin	–	–	–	–	–	–	–
Bis Arg Helix #2: contains 2 copies of Arg Helix #2; SEQ ID NOS.:2 and 3, FIG. 1A (chain 1 ARAARRAARAAARRARAEA; chain 2 AEARARRAAARAARRAARA; also: two copies linked, linkage not given here)	very little neutralization (binding) activity	0.00	24.7	51.2	63.5	–	–	–
B1	–	–	–	–	–	increased significantly	increased	not significantly different
